Results taken from patent publication US20250228836A1, “BILASTINE COMPOSITION FOR ONCE-DAILY PARENTERAL ADMINISTRATION” (FAES FARMA, S.A., priority 2022, published 2025).
In brackets after ≈: the same amount, converted by molar mass.

What was measured:
[1] = pH 5-8; cited from earlier work
[2] = Solubility of bilastine vs. HPβCD concentration and pH; format: physicochemical; settings: aqueous HPβCD solution, thermodynamic from solid
Protocol: The concentration of bilastine in the solubility tests was determined by UV/vis spectrophotometer was a Cary® 60 UV-VIS.
The solubility of bilastine was determined at different concentrations of HPβCD and pH values.
The desired amount of HPβCD was dispersed in 40 ml of purified water in a 50 ml flask until complete dissolution and further diluted with water up to a final volume of 50 ml. Each solution was divided into three solutions (15 ml each) and the pH was adjusted with HCl 37% to the desired values (3, 5 or 7, respectively). Each solution was transferred again into three vials (5 mL solution each) in order to have several replicates for each sample. Bilastine was added in excess to each vial and the solutions were kept under magnetic stirring for 24 hours. After that time, the pH was adjusted again and they were kept stirring for another 24 hours. Finally, the samples were filtered through 0.45 μm filters (Biofil®, Nylon membrane, 13 mm Ø), the final pH was checked and the concentration was determined by UV spectrophotometry at a wavelength of 254 nm. The statistical analysis of the results was carried out using the Centurion XVI Statgraphics program version 16.1.15.

- solubility at 48 h ([2]; aqueous with cosolvent or surfactant or cyclodextrin, Entry 3: HPβCD 30 % w/v, final pH 4.14): 37.8 mg/mL (≈ 81.5 mM)
- solubility at 48 h ([2]; aqueous with cosolvent or surfactant or cyclodextrin, Entry 4: HPβCD 20 % w/v, final pH 5.16): 18.4 mg/mL (≈ 39.6 mM)
- solubility at 48 h ([2]; aqueous with cosolvent or surfactant or cyclodextrin, Entry 5: HPβCD 30 % w/v, final pH 5.13): 27.2 mg/mL (≈ 58.7 mM)
- solubility at 48 h ([2]; aqueous with cosolvent or surfactant or cyclodextrin, Entry 6: HPβCD 30 % w/v, final pH 7.15): 16.9 mg/mL (≈ 36.5 mM)
- solubility at 48 h ([2]; pH 4.6, aqueous with cosolvent or surfactant or cyclodextrin, Entry 2: HPβCD 20 % w/v, final pH 4.60): 35.1 mg/mL (≈ 75.7 mM)
- solubility at 48 h ([2]; pH 4.7, aqueous with cosolvent or surfactant or cyclodextrin, Entry 1: HPβCD 10 % w/v, final pH 4.70): 18.3 mg/mL (≈ 39.4 mM)
SMILES: CCOCCn1c(C2CCN(CCc3ccc(C(C)(C)C(=O)O)cc3)CC2)nc2ccccc21 [Bilastine, 2-[4-(2-{4-[1-(2-ethoxyethyl)-1H-benzimidazol-2-yl]-1-piperidinyl}ethyl)phenyl]-2-methylpropanoic acid]
- water solubility of bilastine [1]: about 0.5 mg/ml
